Results published in patent US12577226B2, “Compounds for treating Huntington's disease” (PTC THERAPEUTICS, INC., priority 2019, dated 2026).

Tested on: Endogenous Huntingtin Protein (capture with MW1 (expanded polyglutamine) or MAB2166 antibody)
Assay: Endogenous Huntingtin Protein Assay (ELISA-based Meso Scale Discovery electrochemiluminescence assay)
Format: cell-based
Settings: MSD electrochemiluminescence platform
How it was run: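 MSD electrochemiluminescence sandwich immunoassay: plates coated with 1 μg/mL MW1 or MAB2166 capture antibody, samples incubated overnight at 4 °C. Detection with rabbit monoclonal #5656S then SULFO-TAG anti-rabbit (each 0.25 μg/mL, 1 h RT).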

Compound | IC50 [nM]
5-(2,8-dimethylimidazo[1,2-a]pyridin-6-yl)-2-(6-{[(3R,4S)-3-fluoro-2,2,6,6-tetramethylpiperidin-4-yl]oxy}pyridazin-3-yl)pyridin-3-ol and 5-(2,8-dimethylimidazo[1,2-a]pyridin-6-yl)-2-(6-{[(3S,4R)-3-fluoro-2,2,6,6-tetramethylpiperidin-4-yl]oxy}pyridazin-3-yl)pyridin-3-ol [Compound 44] | ≤ 100
C[C@]12CC[C@](C)(C[C@@H](Oc3ccc(-c4ncc(-n5nccn5)cc4O)nn3)C1)N2 [Compound 32, 2-(6-{[(1R,3s,5S)-1,5-dimethyl-8-azabicyclo[3.2.1]octan-3-yl]oxy}pyridazin-3-yl)-5-(2H-1,2,3-triazol-2-yl)pyridin-3-ol and 2-(6-{[(1S,3r,5R)-1,5-dimethyl-8-azabicyclo[3.2.1]octan-3-yl]oxy}pyridazin-3-yl)-5-(2H-1,2,3-triazol-2-yl)pyridin-3-ol] | ≤ 100
[2H]C([2H])([2H])n1cc(-c2cnc(-c3ccc(O[C@@H]4C[C@@H](C)NC5(CC5)C4)nn3)c(O)c2)cn1 [Compound 85, 2-(6-{[(5R,7R)-5-methyl-4-azaspiro[2.5]octan-7-yl]oxy}pyridazin-3-yl)-5-[1-(^2H3)methyl-1H-pyrazol-4-yl]pyridin-3-ol] | 500 to 1000
CC1(C)C[C@H](Oc2ccc(-c3ncc(-n4ccnc4)cc3O)nn2)[C@H](F)C(C)(C)N1 (single isomer, unassigned) [Compound 9, 2-(6-{[(3R,4S)-3-fluoro-2,2,6,6-tetramethylpiperidin-4-yl]oxy}pyridazin-3-yl)-5-(1H-imidazol-1-yl)pyridin-3-ol or 2-(6-{[(3S,4R)-3-fluoro-2,2,6,6-tetramethylpiperidin-4-yl]oxy}pyridazin-3-yl)-5-(1H-imidazol-1-yl)pyridin-3-ol] | 100 to 500
2-(6-{[(3R,4S)-3-fluoro-2,2,6,6-tetramethylpiperidin-4-yl]oxy}pyridazin-3-yl)-5-(2-methylimidazo[1,2-a]pyridin-6-yl)pyridin-3-ol and 2-(6-{[(3S,4R)-3-fluoro-2,2,6,6-tetramethylpiperidin-4-yl]oxy}pyridazin-3-yl)-5-(2-methylimidazo[1,2-a]pyridin-6-yl)pyridin-3-ol [Compound 43] | ≤ 100
2-{6-[(3S)-3-(propan-2-yl)piperazin-1-yl]pyridazin-3-yl}-5-(1H-pyrazol-4-yl)pyridin-3-ol and 2-{6-[(3R)-3-(propan-2-yl)piperazin-1-yl]pyridazin-3-yl}-5-(1H-pyrazol-4-yl)pyridin-3-ol [Compound 121] | ≤ 100
CN(c1ncc(-c2ncc(-c3cn[nH]c3)cc2O)nn1)C1CC(C)(C)NC(C)(C)C1 [Compound 135, 2-{3-[methyl(2,2,6,6-tetramethylpiperidin-4-yl)amino]-1,2,4-triazin-6-yl}-5-(1H-pyrazol-4-yl)pyridin-3-ol] | ≤ 100
C[C@@H]1CN(c2ccc(-c3ncc(-c4ccc5n[nH]cc5c4)cc3O)nn2)C[C@H](C)N1 [Compound 131, 2-{6-[(3R,5S)-3,5-dimethylpiperazin-1-yl]pyridazin-3-yl}-5-(2H-indazol-5-yl)pyridin-3-ol and 2-{6-[(3S,5R)-3,5-dimethylpiperazin-1-yl]pyridazin-3-yl}-5-(2H-indazol-5-yl)pyridin-3-ol] | 500 to 1000
CC1(C)C[C@H](Oc2ccc(-c3ncc(-c4cn[nH]c4F)cc3O)nn2)[C@H](F)C(C)(C)N1 (single isomer, unassigned) [Compound 22, 5-(5-fluoro-1H-pyrazol-4-yl)-2-(6-{[(3R,4S)-3-fluoro-2,2,6,6-tetramethylpiperidin-4-yl]oxy}pyridazin-3-yl)pyridin-3-ol or 5-(5-fluoro-1H-pyrazol-4-yl)-2-(6-{[(3S,4R)-3-fluoro-2,2,6,6-tetramethylpiperidin-4-yl]oxy}pyridazin-3-yl)pyridin-3-ol] | 100 to 500
CN(c1cnc(-c2ncc(-n3nccn3)cc2O)nn1)C1CC(C)(C)NC(C)(C)C1 [Compound 161, 2-{6-[methyl(2,2,6,6-tetramethylpiperidin-4-yl)amino]-1,2,4-triazin-3-yl}-5-(2H-1,2,3-triazol-2-yl)pyridin-3-ol] | ≤ 100
[2H]C([2H])([2H])n1cc(-c2cnc(-c3ccc(O[C@H]4C[C@]5(C)CC[C@](C)(C4)N5)nn3)c(O)c2)cn1 [Compound 33, 2-(6-{[(1R,3s,5S)-1,5-dimethyl-8-azabicyclo[3.2.1]octan-3-yl]oxy}pyridazin-3-yl)-5-[1-(^2H3)methyl-1H-pyrazol-4-yl]pyridin-3-ol and 2-(6-{[(1S,3r,5R)-1,5-dimethyl-8-azabicyclo[3.2.1]octan-3-yl]oxy}pyridazin-3-yl)-5-[1-(^2H3)methyl-1H-pyrazol-4-yl]pyridin-3-ol] | ≤ 100
CC(C)[C@H]1CN(c2ncc(-c3ncc(-c4cc(F)c5nn(C)cc5c4)cc3O)nn2)CCN1 [Compound 155, 5-(7-fluoro-2-methyl-2H-indazol-5-yl)-2-{3-[(3S)-3-(propan-2-yl)piperazin-1-yl]-1,2,4-triazin-6-yl}pyridin-3-ol] | ≤ 100
CC1CN(c2ccc(-c3ncc(NCc4ccncc4)cc3O)nn2)CCN1 (stereo not drawn) [Compound 111, 2-[6-(3-methylpiperazin-1-yl)pyridazin-3-yl]-5-{[(pyridin-4-yl)methyl]amino}pyridin-3-ol] | 500 to 1000

More lines, now with the values ahead:

IC50 [nM] | Compound
≤ 100 | 2-(6-{[(3R,4S)-3-fluoro-2,2,6,6-tetramethylpiperidin-4-yl]oxy}pyridazin-3-yl)-5-(1H-pyrazol-4-yl)pyridin-3-ol and 2-(6-{[(3S,4R)-3-fluoro-2,2,6,6-tetramethylpiperidin-4-yl]oxy}pyridazin-3-yl)-5-(1H-pyrazol-4-yl)pyridin-3-ol [Compound 6]
≤ 100 | Cc1cnc(Nc2cnc(-c3cnc(N4CCN[C@@H](C(C)C)C4)nn3)c(O)c2)cn1 [Compound 154, 5-[(5-methylpyrazin-2-yl)amino]-2-[3-[(3S)-3-(propan-2-yl)piperazin-1-yl]-1,2,4-triazin-6-yl}pyridin-3-ol]
≤ 100 | CC1(C)CC(Oc2ccc(-c3ncc(-c4ncco4)cc3O)nn2)CC(C)(C)N1 [Compound 10, 5-(1,3-oxazol-2-yl)-2-{6-[(2,2,6,6-tetramethylpiperidin-4-yl)oxy]pyridazin-3-yl}pyridin-3-ol]
≤ 100 | CC1(C)C[C@H](Oc2ccc(-c3ncc(-c4ncco4)cc3O)nn2)[C@H](F)C(C)(C)N1 (single isomer, unassigned) [Compound 12, 2-(6-{[(3R,4S)-3-fluoro-2,2,6,6-tetramethylpiperidin-4-yl]oxy}pyridazin-3-yl)-5-(1,3-oxazol-2-yl)pyridin-3-ol or 2-(6-{[(3S,4R)-3-fluoro-2,2,6,6-tetramethylpiperidin-4-yl]oxy}pyridazin-3-yl)-5-(1,3-oxazol-2-yl)pyridin-3-ol]
≤ 100 | Cc1cn2nc(-c3cnc(-c4ccc(O[C@H]5CC(C)(C)NC(C)(C)[C@H]5F)nn4)c(O)c3)cc(C)c2n1 [Compound 38, 5-(2,8-dimethylimidazo[1,2-b]pyridazin-6-yl)-2-(6-{ [(3R,4S)-3-fluoro-2,2,6,6-tetramethylpiperidin-4-yl]oxy}pyridazin-3-yl)pyridin-3-ol or 5-(2,8-dimethylimidazo[1,2-b]pyridazin-6-yl)-2-(6-{ [(3S,4R)-3-fluoro-2,2,6,6-tetramethylpiperidin-4-yl]oxy}pyridazin-3-yl)pyridin-3-ol]
≤ 100 | CC1(C)CC(Oc2ccc(-c3ncc(-c4ccc5nccn5n4)cc3O)nn2)CC(C)(C)N1 [Compound 65, 5-(imidazo[1,2-b]pyridazin-6-yl)-2-{6-[(2,2,6,6-tetramethylpiperidin-4-yl)oxy]pyridazin-3-yl}pyridin-3-ol]
≤ 100 | CN[C@@H]1CCN(c2ccc(-c3ncc(-c4cc(OC)ncn4)cc3O)nn2)C1 [Compound 70, 5-(6-methoxypyrimidin-4-yl)-2-{6-[(3R)-3-(methylamino)pyrrolidin-1-yl]pyridazin-3-yl}pyridin-3-ol]
≤ 100 | C[C@@H]1CN(c2ccc(-c3ncc(-c4ccc5nn(C)cc5c4)cc3O)nn2)C[C@H](C)N1 [Compound 124, 2-{6-[(3R,5S)-3,5-dimethylpiperazin-1-yl]pyridazin-3-yl}-5-(2-methyl-2H-indazol-5-yl)pyridin-3-ol and 2-{6-[(3S,5R)-3,5-dimethylpiperazin-1-yl]pyridazin-3-yl}-5-(2-methyl-2H-indazol-5-yl)pyridin-3-ol]
≤ 100 | Cc1cn2cc(-c3cnc(-c4cnc(N5CCN(C)CC5)nn4)c(O)c3)cc(F)c2n1 [Compound 151, 5-(8-fluoro-2-methylimidazo[1,2-a]pyridin-6-yl)-2-[3-(4-methylpiperazin-1-yl)-1,2,4-triazin-6-yl]pyridin-3-ol]
≤ 100 | C[C@H]1CN(c2ccc(-c3ncc(-c4cc(F)c5nn(C)cc5c4)cc3O)nn2)CCN1 [Compound 103, 5-(7-fluoro-2-methyl-2H-indazol-5-yl)-2-{6-[(3S)-3-methylpiperazin-1-yl]pyridazin-3-yl}pyridin-3-ol]
≤ 100 | Oc1cc(-n2nccn2)cnc1-c1ccc(N2CCN[C@@H](C3CC3)C2)nn1 [Compound 128, 2-{6-[(3S)-3-cyclopropylpiperazin-1-yl]pyridazin-3-yl}-5-(2H-1,2,3-triazol-2-yl)pyridin-3-ol]
≤ 100 | COc1cc(-c2cnc(-c3ccc(OC4CC(C)(C)NC(C)(C)C4)nn3)c(O)c2)nn2cc(C)nc12 [Compound 81, 5-(8-methoxy-2-methylimidazo[1,2-b]pyridazin-6-yl)-2-{6-[(2,2,6,6-tetramethylpiperidin-4-yl)oxy]pyridazin-3-yl}pyridin-3-ol]
≤ 100 | COc1cc(-c2cnc(-c3cnc(N4CCN(C)CC4)nn3)c(O)c2)cc2cn(C)nc12 [Compound 150, 5-(7-methoxy-2-methyl-2H-indazol-5-yl)-2-[3-(4-methylpiperazin-1-yl)-1,2,4-triazin-6-yl]pyridin-3-ol]
≤ 100 | CC(C)(C)NC1CCN(c2ncc(-c3ncc(-c4cn[nH]c4)cc3O)nn2)C1 (stereo not drawn) [Compound 136, 2-{3-[3-(tert-butylamino)pyrrolidin-1-yl]-1,2,4-triazin-6-yl}-5-(1H-pyrazol-4-yl)pyridin-3-ol]
